Measured values taken from article PMC8703884, “Synthesis and Biological Evaluation of S-, O- and Se-Containing Dispirooxindoles” (Molecules, 2021).

Tests used:
[1] = tested on: A549 human lung adenocarcinoma epithelial cell line; experiment: MTT cytotoxicity test, A549; assay type: cell-based; conditions: 72 h incubation
[2] = tested on: MCF7 breast cancer cell line; experiment: MTT cytotoxicity test, MCF7; assay type: cell-based; conditions: Homo sapiens, 72 h incubation
Protocol: (§1) MTT test. […] Assays were performed in triplicates.

[3] = MTT cytotoxicity test, VA13; assay type: cell-based; conditions: human, VA13 SV40-transformed normal lung fibroblast cells, 72 h incubation
Protocol: as §1

[4] = MTT cytotoxicity test, Hek293T; assay type: cell-based; conditions: human, 72 h incubation
[5] = tested on: HCT116^+/+ human colon cancer cells (p53 positive); experiment: MTT cytotoxicity test, HCT116 p53+/+; conditions: for CC50: Homo sapiens, HCT-116, read-out: CC50, HCT^+/+
Text: (§2) The used models included human prostate cancer cell lines LNCaP and PC3, breast cancer cell line (MCF-7), human colon cancer cells (HCT116^+/+, p53 positive, p53^+/+ and HCT116^−/−, p53 negative, p53^−/−), human lung adenocarcinoma epithelial cell line (A549), SV40-transformed normal human lung fibroblast cells (VA13), as well as human embryonic kidney 293 cells (Hek293) stably expressing SV40 large T antigen (Hek293T). The cytotoxicity of the evaluated molecules was properly assessed using a MTT assay based on the modified approach reported by Ferrari and colleagues.
(§3) To further elucidate the dominant mode of action, we used HCT116^+/+ and HCT116^−/− cells by analogy with the paper published by Shangary and colleagues. This isogenic cell line is commonly applied to investigate the p53/MDM2-dependent mode of action.
(§4) MTT test. The MTT assay was carried out according to [35] with few modifications; 3000 Cells (for HEK293T, A549 and MCF7cell lines) or 4000 cells (for VA13 cell line) were seeded in each well of a 96-well plate. […] Assays were performed in triplicates. […] The MTT solution was then discarded and 140 µL of DMSO was added. The plates were swayed on a shaker (60 rpm) to solubilize the formazan. […] The analysis of cytotoxicity and the estimation of IC50 values were carried out with the built-in functions in the GraphPad Prism program (GraphPad Software, Inc., San Diego, CA) P53 activation.

[6] = tested on: HCT116^−/− human colon cancer cells (p53 negative); experiment: MTT cytotoxicity test, HCT116 p53-/-; conditions: HCT-116, read-out: CC50, HCT^−/−
Text: as §2, §3, §4

[7] = tested on: LNCaP human prostate cancer cell line; experiment: MTT cytotoxicity test, LNCaP; assay type: cell-based; conditions: for CC50: Homo sapiens, LNCaP, read-out: CC50, LNCaP; for CC50 / selectivity on LNCaP cells over PC3 cells / CC50, LNCaP: MTT test
[8] = tested on: PC3 human prostate cancer cell line; experiment: MTT cytotoxicity test, PC3; assay type: cell-based; conditions: for CC50: Homo sapiens
[9] = ratio of CC50 values of the cell line pair

SMILES | CC50 [1] | CC50 [2] | CC50 at 72 h [3] | CC50 at 72 h [4] | CC50 [5] | CC50 [6] | CC50 [7] | selectivity on LNCaP cells over PC3 cells [7] | CC50 [8] | melting point | selectivity index S for LNCaP/PC3 cells [7, 9] | CC50, LNCaP [7] | CC50, PC3 [8] | selectivity S against HCT116^+/+ over HCT116^−/− [5, 9]
CN1CC2(NC(=S)N(Cc3ccccc3)C2=O)C2(C1)C(=O)Nc1ccccc12 (stereo not drawn) [Compound 4a, 1′-Methyl-1-benzyl-2-thioxodispiro[imidazolidine-4,3′-pyrrolidine-4′,3″-indoline]-2″,5-dione] | 20.3 ± 3.7 µM | 31.3 ± 6.7 µM | 16.1 ± 2.5 µM | 9.8 ± 1.6 µM | 66.2 ± 11.7 µM | 40.1 ± 19.1 µM | 12.5 ± 2.1 µM | moderate selectivity | 30.1 ± 9.1 µM | 189 to 190 °C |  |  |  | 
CN1CC2(NC(=S)N(Cc3ccccc3)C2=O)C2(C1)C(=O)Nc1ccc(Cl)cc12 (stereo not drawn) [Compound 4b, 5″-Chloro-1′-methyl-1-benzyl-2-thioxodispiro[imidazolidine-4,3′-pyrrolidine-4′,3″-indoline]-2″,5-dione] | 9.1 ± 2.2 µM | 24.3 ± 2.3 µM | 21.4 ± 1.9 µM | 9.5 ± 1.7 µM | 60.7 ± 13.8 µM | 30 ± 15.2 µM | 10.3 ± 1.1 µM | moderate selectivity | 49 ± 12.7 µM | 152 to 153 °C |  |  |  | 
C=CCN1C(=O)C2(CN(C)CC23C(=O)Nc2ccccc23)NC1=S (stereo not drawn) [Compound 4c, 1′-Methyl-1-allyl-2-thioxodispiro[imidazolidine-4,3′-pyrrolidine-4′,3″-indoline]-2″,5-dione] | 45.9 ± 13.4 µM | > 100 µM | > 100 µM | 41.8 ± 12.4 µM | > 100 µM | 14.3 ± 6.65 µM | 9.8 ± 3.3 µM |  | 53.1 ± 15.8 µM | 281 to 283 °C (dec.) |  |  |  | 
C=CCN1C(=O)C2(CN(C)CC23C(=O)Nc2ccc(Cl)cc23)NC1=S (stereo not drawn) [Compound 4d, 5″-Chloro-1′-methyl-1-allyl-2-thioxodispiro[imidazolidine-4,3′-pyrrolidine-4′,3″-indoline]-2″,5-dione] | 32.1 ± 6.7 µM | 68.4 ± 8.8 µM | 30.8 ± 4.5 µM | 11.5 ± 3 µM | 57.7 ± 18.4 µM | 40.1 ± 5.23 µM | 20 ± 3.6 µM | moderate selectivity | 50 ± 9.1 µM | 141 to 142 °C |  |  |  | 
COc1ccc(N2C(=O)C3(CN(C)CC34C(=O)Nc3ccccc34)NC2=S)cc1 (stereo not drawn) [Compound 4e, 1′-Methyl-1-(4-methoxyphenyl)-2-thioxodispiro[imidazolidine-4,3′-pyrrolidine-4′,3″-indoline]-2″,5-dione] | 18.9 ± 3.1 µM | 22.8 ± 5.6 µM | 13.2 ± 2.3 µM | 6.5 ± 0.9 µM | 27.9 ± 6.94 µM | 36 ± 12.6 µM | 3.45 ± 0.45 µM |  | > 100 µM | 155 to 156 °C | > 30 |  |  | 
CCOc1ccc(N2C(=O)C3(CN(C)CC34C(=O)Nc3ccccc34)NC2=S)cc1 (stereo not drawn) [Compound 4g, 1′-Methyl-1-(4-ethoxyphenyl)-2-thioxodispiro[imidazolidine-4,3′-pyrrolidine-4′,3″-indoline]-2″,5-dione] | 38.2 ± 11.5 µM | 75.2 ± 29.3 µM | 73.6 ± 23.4 µM | 30.2 ± 8.2 µM | > 100 µM | > 100 µM | > 100 µM |  | > 100 µM | 240 to 241 °C |  |  |  | 
CCOc1ccc(N2C(=O)C3(CN(C)CC34C(=O)Nc3ccc(Cl)cc34)NC2=S)cc1 (stereo not drawn) [Compound 4h, 5″-Chloro-1′-methyl-1-(4-ethoxyphenyl)-2-thioxodispiro[imidazolidine-4,3′-pyrrolidine-4′,3″-indoline]-2″,5-dione] | 6.2 ± 2.1 µM | 8.5 ± 1.2 µM | 6.3 ± 1.1 µM | 6.7 ± 0.9 µM | > 100 µM | > 100 µM | > 100 µM |  | > 100 µM | 268 to 271 °C |  | no activity at all | no activity at all | 
Cc1ccc(N2C(=O)C3(CN(C)CC34C(=O)Nc3ccccc34)NC2=S)cc1 (stereo not drawn) [Compound 4i, 1′-Methyl-1-(p-tolyl)-2-thioxodispiro[imidazolidine-4,3′-pyrrolidine-4′,3″-indoline]-2″,5-dione] | > 100 µM | 88.2 ± 32.2 µM | > 100 µM | > 100 µM | > 100 µM | > 100 µM | > 100 µM |  | > 100 µM | 155 to 157 °C |  |  |  | 
Cc1ccc(N2C(=O)C3(CN(C)CC34C(=O)Nc3ccc(Cl)cc34)NC2=S)cc1 (stereo not drawn) [Compound 4j, 5″-Chloro-1′-methyl-1-(p-tolyl)-2-thioxodispiro[imidazolidine-4,3′-pyrrolidine-4′,3″-indoline]-2″,5-dione] | 62 ± 8.3 µM | 13.7 ± 2.1 µM | 27.2 ± 5.3 µM | 17.4 ± 2 µM | > 100 µM | > 100 µM | > 100 µM |  | > 100 µM | 159 to 160 °C |  |  |  | 
CN1CC2(NC(=S)N(c3ccc(Cl)cc3)C2=O)C2(C1)C(=O)Nc1ccc(Cl)cc12 (stereo not drawn) [Compound 4l, 5″-Chloro-1′-methyl-1-(4-chlorophenyl)-2-thioxodispiro[imidazolidine-4,3′-pyrrolidine-4′,3″-indoline]-2″,5-dione] | 37 ± 6.5 µM | 19.1 ± 4.1 µM | 30.4 ± 3 µM | 34 ± 3.4 µM | 42.5 ± 9.1 µM | 57.1 ± 5.76 µM | 4.4 ± 0.67 µM |  | 2.2 ± 0.7 µM | 239 to 240 °C |  |  |  | 
CN1CC2(NC(=S)N(c3ccc(F)cc3)C2=O)C2(C1)C(=O)Nc1ccccc12 (stereo not drawn) [Compound 4m, 1′-Methyl-1-(4-fluorophenyl)-2-thioxodispiro[imidazolidine-4,3′-pyrrolidine-4′,3″-indoline]-2″,5-dione] | > 100 µM | 106 ± 43.1 µM | 171 ± 15.8 µM | > 100 µM | 23.3 ± 3.3 µM | 42.4 ± 4.7 µM | 3.4 ± 0.7 µM |  | 1.93 ± 0.91 µM | 273 to 274 °C |  |  |  | 
CN1CC2(NC(=S)N(Cc3cccc(Cl)c3)C2=O)C2(C1)C(=O)Nc1ccccc12 (stereo not drawn) [Compound 4o, 1′-Methyl-1-(3-chlorobenzyl)-2-thioxodispiro[imidazolidine-4,3′-pyrrolidine-4′,3″-indoline]-2″,5-dione] | 53.4 ± 11.2 µM | 23.2 ± 3.6 µM | 36.3 ± 3.2 µM | 48 ± 5.3 µM | > 100 µM | > 100 µM | > 100 µM |  | > 100 µM | 273 to 274 °C |  |  |  | 
CN1CC2(NC(=S)N(Cc3cccc(Cl)c3)C2=O)C2(C1)C(=O)Nc1ccc(Cl)cc12 (stereo not drawn) [Compound 4p, 5″-Chloro-1′-methyl-1-(3-chlorobenzyl)-2-thioxodispiro[imidazolidine-4,3′-pyrrolidine-4′,3″-indoline]-2″,5-dione] | 11.3 ± 2.4 µM | 6.6 ± 1 µM | 12.3 ± 1.6 µM | 18.4 ± 1.7 µM | 34.2 ± 5.7 µM | > 100 µM | 4.1 ± 0.1 µM |  | 2.2 ± 1.4 µM | 261 to 262 °C |  |  |  | > 2.9
CN1CC2(NC(=S)N(c3ccc(F)c(Cl)c3)C2=O)C2(C1)C(=O)Nc1ccccc12 (stereo not drawn) [Compound 4q, 1′-Methyl-1-(3-chloro-4-fluorophenyl)-2-thioxodispiro[imidazolidine-4,3′-pyrrolidine-4′,3″-indoline]-2″,5-dione] | > 100 µM | 62.2 ± 27.7 µM | 57.9 ± 18.3 µM | 69.1 ± 21 µM | > 100 µM | > 100 µM | > 100 µM |  | > 100 µM | 252 to 254 °C |  |  |  | 
CN1CC2(NC(=S)N(c3ccc(F)c(Cl)c3)C2=O)C2(C1)C(=O)Nc1ccc(Cl)cc12 (stereo not drawn) [Compound 4r, 5″-Chloro-1′-methyl-1-(3-chloro-4-fluorophenyl)-2-thioxodispiro[imidazolidine-4,3′-pyrrolidine-4′,3″-indoline]-2″,5-dione] | 14.1 ± 1.8 µM | 14.1 ± 1.2 µM | 13.9 ± 1.5 µM | 11.1 ± 1.3 µM | > 100 µM | > 100 µM | > 100 µM |  | > 100 µM | 177 to 180 °C |  | absolutely inactive | absolutely inactive | 
CN1CC2(NC(=S)N(C3CC3)C2=O)C2(C1)C(=O)Nc1ccccc12 (stereo not drawn) [Compound 4s, 1′-Methyl-1-cyclopropyl-2-thioxodispiro[imidazolidine-4,3′-pyrrolidine-4′,3″-indoline]-2″,5-dione] | > 100 µM | > 100 µM | > 100 µM | > 100 µM | > 100 µM | > 100 µM | > 100 µM |  | > 100 µM | 272 to 273 °C (dec.) |  |  |  | 
